These results are taken from patent publication US20260007133A1, “HERBICIDAL COMPOSITION COMPRISING AZINE COMPOUNDS” (BASF SE, priority 2022, published 2026).

Where two headings read alike, the source gives them in different places.

Common to all, as to assay type: in vivo
One experiment concerns Ipomoea hederacea. Briefly: Greenhouse post-emergence (POST) herbicidal test on IPOHE. To be noted: for % activity: IPOHE POST. Here is the method:
(§1) The culture containers used were plastic pots containing loamy sand with approximately 3.0% of humus as substrate. The seeds of the test plants were sown separately for each species.
(§2) For the post-emergence treatment, the test plants were grown to a plant height of from 3 to 15 cm, depending on the plant habit, and only then treated with the active compounds which had been suspended or emulsified in water. To this end, the test plants were either sown directly, and grown in the same containers, or they were first grown separately as seedlings and transplanted into the test containers a few days prior to treatment.
(§3) Depending on the species, the plants were kept at 10-25° C. and 20-35° C., respectively.
(§4) The test period extended over 2 to 4 weeks. During this time, the plants were tended and their response to the individual treatments was evaluated.
(§5) Evaluation was carried out using a scale from 0 to 100. 100 means no emergence of the plants, or complete destruction of at least the above-ground parts, and 0 means no damage or normal course of growth. A good herbicidal activity is given at values of at least 70, and very good herbicidal activity is given at values of at least 85.
(§6) If not stated differently, the respective components A and B, and if appropriate, C were formulated as a 5% by weight strength emulsion concentrate and, with addition of the amount of solvent system, introduced into the spray liquor used for applying the active compound.
As indicated application was either post emergent (POST) at the respective growth stage (GS) of the weed (BBCH code), or pre-emergent (PRE).
Assessment was 20 days after treatment (DAT).

The test system of experiment [1] is Abutilon theophrasti. Put plainly: Greenhouse post-emergence (POST) herbicidal test on ABUTH. To be noted: for % activity: ABUTH POST. Here is the method: as §1, §2, §3, §4, §5, §6
(§7) As indicated application was either post emergent (POST) at the respective growth stage (GS) of the weed (BBCH code), or pre-emergent (PRE). […]

Another experiment concerns Digitaria sanguinalis. Briefly: Greenhouse post-emergence (POST) herbicidal test on DIGSA. The settings on record: for % activity: DIGSA POST. Here is the method:
as §1, §2, §3, §4, §5, §6, §7

In experiment [2] the test system is Euphorbia heterophylla. Briefly: Greenhouse post-emergence (POST) herbicidal test on EPHHL. To be noted: for % activity: EPHHL POST. How it is done:
as §1, §2, §3, §4, §5, §6, §7

Experiment [3] deals with Echinochloa crus-galli. Put plainly: Greenhouse post-emergence (POST) herbicidal test on ECHCG. To be noted: Echinochloa crus-galli, post-emergence. Here is the method:
as §1, §2, §3, §4, §5, §6, §7

In experiment [4] the test system is Euphorbia heterophylla. Briefly: Greenhouse pre-emergence (PRE) herbicidal test on EPHHL. To be noted: Euphorbia heterophylla, pre-emergence, 480 h, PRE, EPHHL, 20 DAT, read-out: solo application % activity. How it is done: as §1
(§8) The containers were irrigated gently to promote germination and growth and subsequently covered with transparent plastic hoods until the plants had rooted.
as §3, §4, §5, §7

A further experiment has as its system Alopecurus myosuroides. Briefly: Greenhouse pre-emergence (PRE) herbicidal test on ALOMY. To be noted: Alopecurus myosuroides, pre-emergence; for inhibition at 6.25 g/ha: read-out: % activity. How it is done: as §1, §8, §3, §4, §5, §7
Another experiment relates to Lolium multiflorum. Put plainly: Greenhouse pre-emergence (PRE) herbicidal test on LOLMU. To be noted: Lolium multiflorum, pre-emergence, 480 h. Here is the method:
as §1, §8, §3, §4, §5, §7

For a further experiment, the system named is Geranium pusillum. Put plainly: Greenhouse post-emergence (POST) herbicidal test on GERPU. To be noted: Geranium pusillum, post-emergence. Here is the method:
as §1, §2, §3, §4, §5, §6, §7

Another experiment has as its system Ambrosia artemisiifolia. Briefly: Greenhouse pre-emergence (PRE) herbicidal test on AMBEL. To be noted: Ambrosia artemisiifolia, pre-emergence, 480 h, PRE, AMBEL, 20 DAT, read-out: solo application % activity. How it is done:
as §1, §8, §3, §4, §5, §7

Another experiment has as its system Setaria viridis. Put plainly: Greenhouse pre-emergence (PRE) herbicidal test on SETVI. To be noted: Setaria viridis, pre-emergence; for inhibition at 6.25 g/ha / inhibition at 12.5 g/ha: read-out: % activity.
Source text: as §1
For the pre-emergence treatment, the active compounds, suspended or emulsified in water, were applied directly after sowing by means of finely distributing nozzles. The containers were irrigated gently to promote germination and growth and subsequently covered with transparent plastic hoods until the plants had rooted. This cover caused uniform germination of the test plants unless this was adversely affected by the active compounds.
as §3, §4, §5, §6, §7

Experiment [5] has as its system Abutilon theophrasti. Put plainly: Greenhouse pre-emergence (PRE) herbicidal test on ABUTH. The settings on record: Abutilon theophrasti, pre-emergence, 480 h, PRE, ABUTH, 20 DAT, read-out: solo application % activity. Here is the method:
as §1, §8, §3, §4, §5, §7

The next experiment has as its system Amaranthus retroflexus. Put plainly: Greenhouse post-emergence (POST) herbicidal test on AMARE. Here is the method: as §1, §2, §3, §4, §5, §6, §7
The subject of experiment [6] is Echinochloa crus-galli. Briefly: Greenhouse pre-emergence (PRE) herbicidal test on ECHCG. To be noted: Echinochloa crus-galli, pre-emergence, 480 h, read-out: % activity. Here is the method: as §1, §8, §3, §4, §5, §7
A further experiment has as its system Commelina benghalensis. Put plainly: Greenhouse pre-emergence (PRE) herbicidal test on COMBE. To be noted: Commelina benghalensis, pre-emergence, read-out: % activity. How it is done: as §1, §8, §3, §4, §5, §7
[7] abbreviates: Amaranthus retroflexus, post-emergence, read-out: % activity.

On to `Cc1cccc(C2CC2)c1Oc1nnc(Cl)cc1OC(=O)N1CCOCC1` [Cyclopyrimorate, cyclopyrimorate], for which the “% activity” value with Ipomoea hederacea (use rate 25 gai/ha) is 40%; in the experiment with Abutilon theophrasti [1] (use rate 25 gai/ha), 5%; with Digitaria sanguinalis (use rate 25 gai/ha), 10%; in the experiment with Digitaria sanguinalis (use rate 200 gai/ha), 40%.

Consider `C#CCN1C(=O)COc2cc(F)c(N3C(=O)C4=C(CCCC4)C3=O)cc21` [Flumioxazin, flumioxazin], for which the inhibition at 1 g/ha with Euphorbia heterophylla [2] (Euphorbia heterophylla, post-emergence, 480 h, POST, EPHHL, use rate 1 gai/ha, 20 DAT, read-out: solo application % activity) was 60%; in the experiment on Echinochloa crus-galli [3] (480 h, POST, ECHCG, use rate 1 gai/ha, 20 DAT, read-out: solo application % activity) it was 5%; in the experiment with Euphorbia heterophylla [4] (use rate 1 gai/ha) it was 5%; in the experiment on Digitaria sanguinalis (Digitaria sanguinalis, post-emergence, 480 h, POST, DIGSA, use rate 1 gai/ha, 20 DAT, read-out: solo application % activity) it was 10%; in the experiment with Setaria viridis (480 h, PRE, SETVI, use rate 1 gai/ha, 20 DAT, read-out: solo application % activity), 0%; in the experiment on Abutilon theophrasti [5] (use rate 1 gai/ha) it was 0%. For the same compound, the inhibition at 0.5 g/ha in the experiment on Echinochloa crus-galli [3] (480 h, POST, ECHCG, use rate 0.5 gai/ha, 20 DAT, read-out: solo application % activity) was 0%; in the experiment on Euphorbia heterophylla [4] (use rate 0.5 gai/ha), 5%; in the experiment with Alopecurus myosuroides (480 h, PRE, ALOMY, use rate 0.5 gai/ha, 20 DAT, read-out: solo application % activity), 0%; in the experiment with Lolium multiflorum (PRE, LOLMU, use rate 0.5 gai/ha, 20 DAT, read-out: solo application % activity) it was 0%; with Ambrosia artemisiifolia (use rate 0.5 gai/ha), 0%; in the experiment with Setaria viridis (480 h, PRE, SETVI, use rate 0.5 gai/ha, 20 DAT, read-out: solo application % activity), 0%. Moreover, in the experiment with Abutilon theophrasti [5] (use rate 0.5 gai/ha), the inhibition at 0.5 g/ha was determined as 0%. Also, the inhibition at 2 g/ha in the experiment with Echinochloa crus-galli [3] (480 h, POST, ECHCG, use rate 2 gai/ha, 20 DAT, read-out: solo application % activity) was 30%; in the experiment with Euphorbia heterophylla [4] (use rate 2 gai/ha) it was 10%; in the experiment with Abutilon theophrasti [1] (Abutilon theophrasti, post-emergence, 480 h, POST, ABUTH, use rate 2 gai/ha, 20 DAT, read-out: solo application % activity) it was 70%; with Digitaria sanguinalis (Digitaria sanguinalis, post-emergence, 480 h, POST, DIGSA, use rate 2 gai/ha, 20 DAT, read-out: solo application % activity), 25%; in the experiment on Geranium pusillum (480 h, POST, GERPU, use rate 2 gai/ha, 20 DAT, read-out: solo application % activity), 45%; in the experiment on Ambrosia artemisiifolia (use rate 2 gai/ha) it was 0%. In addition, the inhibition at 2 g/ha with Setaria viridis (480 h, PRE, SETVI, use rate 2 gai/ha, 20 DAT, read-out: solo application % activity) amounted to 0%. The inhibition at […] is 0% in the experiment on Euphorbia heterophylla [4] (use rate 0.25 gai/ha); 0% in the experiment with Alopecurus myosuroides (480 h, PRE, ALOMY, use rate 0.25 gai/ha, 20 DAT, read-out: solo application % activity); 0% with Abutilon theophrasti [5] (use rate 0.25 gai/ha).

In the case of `O=C(O)CNCP(=O)(O)O` [Glyphosate, glyphosate], the values for the inhibition at 100 g/ha in the experiment on Amaranthus retroflexus (setting [7]), in the experiment on Echinochloa crus-galli [3] (read-out: % activity) and with Geranium pusillum (read-out: % activity) were 10%, 30% and 45%, respectively. Further, the inhibition at 200 g/ha in the experiment with Amaranthus retroflexus (setting [7]) came out at 80%; in the experiment with Echinochloa crus-galli [3] (read-out: % activity), 35%; in the experiment with Ipomoea hederacea (Ipomoea hederacea, post-emergence, read-out: % activity) it was 15%; in the experiment on Abutilon theophrasti [1] (Abutilon theophrasti, post-emergence, read-out: % activity), 25%.

With `CCC/C(=N\OCC)C1=C(O)CC(CC(C)SCC)CC1=O` (stereo not shown) [Sethoxydim, sethoxydim], the inhibition at 6.25 g/ha turned out to be 10% in the experiment with Echinochloa crus-galli [6]; 20% with Alopecurus myosuroides (480 h); 20% in the experiment with Alopecurus myosuroides; 15% in the experiment on Lolium multiflorum (read-out: % activity); 5% with Setaria viridis (480 h); 5% with Setaria viridis. Besides, in the experiment on Commelina benghalensis, the inhibition at 6.25 g/ha stood at 0%. Also, the inhibition at 12.5 g/ha came to 40% with Echinochloa crus-galli [6], 60% in the experiment with Setaria viridis (480 h) and 60% in the experiment with Setaria viridis.

On to `CN1C[C@H](c2cccc(C(F)(F)F)c2)[C@@H](C(=O)Nc2ccccc2F)C1=O` [Tetflupyrolimet, tetflupyrolimet], for which the “% activity” value was 0% in the experiment with Euphorbia heterophylla [2] (use rate 31.25 gai/ha); 0% with Euphorbia heterophylla [2] (use rate 250 gai/ha); 35% with Amaranthus retroflexus (AMARE POST, use rate 250 gai/ha); 0% in the experiment on Ipomoea hederacea (use rate 31.25 gai/ha); 5% in the experiment with Abutilon theophrasti [1] (use rate 250 gai/ha).
